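Tested at 5 concentrations; 48 h exposure; 96-well plates; endpoints linearly interpolated, else capped at highest concentration. The concentration for full growth arrest is given as TGI.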
Experiments:
Experiment in all cases: NCI anticancer screen, dose series, 48 h
[1] = test system: HOP-92 NSCLC
[2] = test system: CAKI-1 renal
[3] = test system: HCT-15 colon
[4] = test system: COLO 205 colon
[5] = test system: HS 578T breast
[6] = test system: 786-0 renal
[7] = test system: SK-MEL-2 melanoma
[8] = test system: ACHN renal
[9] = test system: M14 melanoma
[10] = test system: OVCAR-8 ovarian
[11] = test system: NCI-H522 lung
[12] = test system: A498 renal
[13] = test system: NCI-H226 lung
[14] = test system: SF-268 CNS
[15] = test system: MALME-3M melanoma
[16] = test system: RXF 393 renal
[17] = test system: U251 CNS
[18] = test system: SF-539 CNS
[19] = test system: NCI-H460 lung

SMILES	TGI [1]	TGI [2]	TGI [3]	TGI [4]	TGI [5]	TGI [6]	TGI [7]	TGI [8]	TGI [9]	TGI [10]	TGI [11]	TGI [12]	TGI [13]	TGI [14]	TGI [15]	TGI [16]	TGI [17]	TGI [18]	TGI [19]
O=C(NCCCNC(=O)c1ccc2c(O)c(O)ccc2c1)c1ccc2c(O)c(O)ccc2c1	> 100 µM	> 100 µM	> 72.5 µM	50.6 µM	56.1 µM	57.9 µM	> 81.6 µM	55.9 µM	78.8 µM	99.1 µM	48.5 µM	98 µM	> 100 µM	58.1 µM	> 100 µM	> 70 µM	64.4 µM	> 100 µM	
CC(=O)c1sc2c(c1OC(=O)c1cccs1)c(=O)n(-c1ccccc1)c(=S)n2-c1ccccc1	22.1 µM	61.1 µM	36.5 µM	32.5 µM	22.3 µM	15.5 µM		11.1 µM	10.6 µM	21.1 µM	6.07 µM	15.9 µM	9.84 µM	51.5 µM	6.7 µM	18.6 µM	26.7 µM	6.26 µM	25.3 µM
CC1=C(Br)C(Br)=C(C)S1=O	> 100 µM	49.9 µM	> 100 µM	5.82 µM	> 100 µM	55.9 µM	32.9 µM	90.9 µM	33.8 µM	> 100 µM	23.8 µM	96.5 µM	50.2 µM	> 100 µM	39.3 µM		26 µM	27.7 µM	34.7 µM
CN(Nc1cc(=O)[nH]c(=O)[nH]1)c1ccccc1	> 100 µM	> 100 µM		> 100 µM	> 100 µM	> 100 µM	> 100 µM	> 100 µM	> 100 µM	> 100 µM		> 100 µM	> 100 µM	> 100 µM	> 100 µM	> 100 µM	> 100 µM	> 100 µM	> 100 µM
CCC1c2[nH]c3ccccc3c2C[C@H]2C(=O)NC(COC(C)(C)C)C(=O)N12 (some centres not stated)	90.6 µM	> 100 µM	> 100 µM	37.6 µM	> 100 µM	> 100 µM	85 µM	> 100 µM	> 100 µM	> 100 µM	> 100 µM	> 100 µM	> 100 µM	> 100 µM	94.7 µM	> 100 µM	> 100 µM		> 100 µM
O=c1cc(-c2ccccc2)[nH]c2cc3c(cc12)OCO3	> 56.5 µM		> 100 µM	65.7 µM	> 100 µM	> 93 µM	> 93.2 µM	> 100 µM	> 80.2 µM	> 100 µM	13.4 µM	63.1 µM	27.5 µM	> 17.5 µM	> 82.9 µM	17.2 µM	> 82.3 µM	18.8 µM	> 57.8 µM
CCN1c2nc3ccccc3nc2N(CC)c2nc3ccccc3nc21		> 100 µM	> 100 µM	> 100 µM	> 100 µM	> 100 µM	> 100 µM	> 100 µM	> 100 µM	> 100 µM	> 100 µM	> 100 µM	> 100 µM	> 100 µM	> 100 µM	> 100 µM	> 100 µM	94 µM	> 100 µM
COc1ccc2c3c1O[C@H]1C(O)CCC4(O)[C@@H](C2)NCC[C@]314 (some centres not stated)	> 100 µM	> 100 µM	> 100 µM	> 100 µM	> 100 µM	> 100 µM	> 100 µM	> 100 µM	> 100 µM	> 100 µM	> 100 µM	> 100 µM	> 100 µM	> 100 µM	> 100 µM		> 100 µM	> 100 µM	
O=C1c2cc3c(cc2CC12Cc1cc4c(cc1C2=O)CCC4)CCCC3 (configuration not stated)	> 100 µM	> 100 µM	> 100 µM		> 100 µM	> 100 µM	> 100 µM	> 100 µM	> 100 µM	> 100 µM	> 100 µM	> 100 µM		> 100 µM	> 100 µM	> 100 µM	> 100 µM	> 100 µM	> 100 µM
COC(=O)C1=C(C)NC(C)=C(C(=O)OC)C1c1ccc(/[N+]([O-])=C/c2ccccc2)cc1	35.3 µM	35 µM	> 100 µM	35.1 µM	> 100 µM	33.3 µM	> 100 µM	32.7 µM	35.7 µM	46.2 µM	27.9 µM		> 100 µM	> 100 µM	31.3 µM	41.1 µM	> 100 µM	> 100 µM	> 100 µM
N#Cc1c(-c2ccccc2)[nH]c2ccccc2c1=O	> 100 µM	> 100 µM	> 100 µM	> 100 µM	71.5 µM	> 100 µM	> 100 µM	> 100 µM	> 100 µM	> 100 µM		> 100 µM	> 100 µM	> 100 µM	> 100 µM	> 100 µM		> 100 µM	> 100 µM
Cc1cn(C2CC(ON3C(=O)c4ccccc4C3=O)C(CO)O2)c(=O)[nH]c1=O (configuration not stated)	> 10 µM		> 10 µM		> 10 µM	> 10 µM	> 10 µM	> 10 µM	> 10 µM	> 10 µM	> 10 µM		> 10 µM	> 10 µM	> 10 µM	> 10 µM	> 10 µM	> 10 µM	> 10 µM
COc1ccc2c(c1)CCc1c-2[nH]c2ccc(OC)cc12	> 100 µM	> 100 µM	> 100 µM	> 100 µM	> 100 µM	> 100 µM	> 100 µM	> 100 µM	> 100 µM	> 100 µM	> 100 µM	> 100 µM	> 100 µM	> 100 µM	> 100 µM		> 100 µM		> 100 µM
CCN(CC)/C(Cl)=C(Cl)\C(=C1\Nc2ccc(OC)cc21)[N+](=O)[O-]	> 100 µM	> 100 µM	> 100 µM	> 100 µM	> 100 µM	> 100 µM		> 100 µM	> 100 µM	> 100 µM	67.3 µM	> 100 µM	69.2 µM	> 100 µM	> 100 µM	72.9 µM	> 100 µM		> 100 µM
CCOC(=O)C1(C(=O)OCC)CN(CC)CN(c2ccccc2)C1	33.3 µM	31.8 µM	39 µM	34.8 µM	> 100 µM	35.2 µM		35.8 µM	39.1 µM	47.4 µM	56.1 µM	> 100 µM		> 100 µM	69.2 µM	31.7 µM		41.2 µM	> 100 µM
CCOC(=O)C1=C(Nc2cccc(OC)c2)OCC1=O	> 100 µM	> 100 µM	> 100 µM	> 100 µM	> 100 µM	> 100 µM	> 100 µM	> 100 µM	> 100 µM	> 100 µM		> 100 µM	> 100 µM	> 100 µM		> 100 µM	> 100 µM	> 100 µM	> 100 µM
C=CCN1C[C@H](C)N([C@H](c2ccc(C(=O)N(CC)CCO)cc2)c2cccc(OC)c2)C[C@H]1C	> 100 µM	> 100 µM	> 100 µM	> 100 µM	> 100 µM	> 100 µM	> 100 µM	> 100 µM	> 100 µM	> 100 µM	> 100 µM	> 100 µM	> 100 µM	> 100 µM	> 100 µM		> 100 µM	> 100 µM	
CSC1=C(SC)SC(=C2SC3=C(SC(=C4SCCS4)S3)S2)S1	> 100 µM	> 100 µM	> 100 µM	> 100 µM	> 100 µM	> 100 µM	> 100 µM	> 100 µM	> 100 µM	> 100 µM	> 100 µM		> 100 µM	> 100 µM	> 100 µM		> 100 µM	> 100 µM	> 100 µM
Cn1ccc(C(=O)NCCOCCNC(=O)c2ccn(C)c(=O)c2O)c(O)c1=O	> 100 µM	> 100 µM	> 100 µM	> 100 µM	> 100 µM	> 100 µM	> 100 µM	> 100 µM		> 100 µM	> 100 µM	> 100 µM	> 100 µM	> 100 µM	> 100 µM		> 100 µM		> 100 µM
COc1ccc(C[N+]23C(CC[C@H]2c2ccccc2)CC[C@H]3c2ccccc2)cc1 (some centres not stated)	39.5 µM	> 100 µM		21.4 µM	> 100 µM	> 100 µM	43 µM	> 100 µM	42.4 µM	> 100 µM	45.4 µM	> 100 µM	55 µM	> 100 µM	30.8 µM	35.3 µM	> 100 µM		
O=C(C(=O)N1CCc2ccccc21)c1c[nH]c2ccccc12	> 10 µM	> 10 µM	> 10 µM	> 10 µM	> 10 µM	> 10 µM	> 10 µM	> 10 µM	> 10 µM	> 10 µM	> 10 µM		> 10 µM	> 10 µM	> 10 µM	> 10 µM	> 10 µM	> 10 µM	> 10 µM
C[C@]12CCC(=O)C=C1CC[C@@H]1C2CC[C@]2(C)c3nn(-c4ccc(F)cc4)nc3CC12 (some centres not stated)	> 100 µM	> 100 µM		> 100 µM	> 100 µM	> 100 µM		> 100 µM	> 100 µM	> 100 µM	> 100 µM	> 100 µM	> 100 µM	> 100 µM	> 100 µM	> 100 µM	> 100 µM	> 100 µM	> 100 µM
CCN(CC)CCn1nc(N)c2nc3cc(Cl)ccc3nc21	> 100 µM	> 100 µM	> 100 µM	> 100 µM	> 100 µM	> 100 µM	> 100 µM	> 100 µM	> 100 µM	> 100 µM	> 100 µM	> 100 µM	> 100 µM	> 100 µM	> 100 µM	> 100 µM	> 100 µM		> 100 µM
COc1ccc2c(c1)CN1C(=N2)CSC1c1cc([N+](=O)[O-])ccc1Cl (configuration not stated)	> 100 µM	> 100 µM	> 100 µM	92.4 µM	> 100 µM	> 100 µM	> 100 µM	> 100 µM	> 100 µM	> 100 µM	> 100 µM		> 100 µM	> 100 µM	> 100 µM	> 100 µM	> 100 µM	98.2 µM	> 100 µM
Cc1cccc(/C=N/NC(=S)NCCc2ccccn2)n1	> 100 µM	> 100 µM	> 100 µM	> 100 µM	> 100 µM	> 100 µM	> 100 µM	> 74.5 µM	33.6 µM	> 100 µM	> 100 µM	87.5 µM	66.3 µM	> 100 µM	> 100 µM		92.1 µM	> 73.3 µM	> 100 µM
COc1cccc(CCn2c(N)c(-c3ccccc3)c3ccc([N+](=O)[O-])cc3c2=O)c1	31.2 µM	16.7 µM	27.9 µM	5.93 µM	5.25 µM	19.4 µM	48.4 µM	15 µM	24.3 µM	4.45 µM	9.37 µM	5.34 µM	11.7 µM	53.7 µM	33.6 µM		36.5 µM	6.28 µM	30 µM
CCC1OC2C(CC=C(C)C)=C3OC(C)(O)C(C)(CC)C(OC(=O)c4ccccc4)C3=C3OC(=O)C=C1C32 (configuration not stated)	> 100 µM	> 100 µM	> 100 µM	39.8 µM	> 100 µM	> 100 µM	55.2 µM	> 100 µM	> 100 µM	> 100 µM	47.6 µM	> 100 µM		> 100 µM	> 100 µM		> 100 µM	54.1 µM	> 100 µM

From PubChem BioAssay (NCI)
